Common to all, as to type: cell-based
Assay [1] deals with Helicobacter pylori No. 4. The assay is described as follows: MIC, agar plating dilution, clinical segregation strain. The following applies: Strain 7: Helicobacter pylori No. 4. How it is done: (§1) Minimum Inhibitory Concentration (MIC) was measured in accordance with the standard method of Japanese Chemotherapy Academy (Chemotherapy, 29: 76-79, 1981). Sensitivity was measured with an agar plating dilution using Brain-Heart Infusion agar (Difco Co.) which was added 0.1% of cyclodextrin. […] of the solutions of the compounds which were obtained in examples of the present invention was prepared by dissolving in dimethylsulfoxide. […] Each of 1 ml of those prepared solutions was dispensed in share, after sterilization, 9 ml of sensitivity measuring medium which is kept at 50° C. was added to each, and they were sufficiently mixed. The mixture was used as a plate for measuring sensitivity. Brain Heart Infusion agar medium (Difco Co.), which was added 0.1% of cyclodextrin, was used as bacteria growing medium, and was cultured under microair at 37° C. for three days, and the number of bacteria thereof was adjusted to about 106/ml. This was used as a bacterial solution for inoculation. The medium was painted in each square about 2 cm with nichromic line loop. The medium was cultured under microair for three days at 37° C. […] The each result is shown at Table 4.

In assay [2] the test system is Helicobacter pylori No. 3. The assay is described as above. The following applies: Strain 6: Helicobacter pylori No. 3. As for the experimental part:
as §1

For assay [3], the system named is Helicobacter pylori No. 1. The description is as above. The following applies: Strain 4: Helicobacter pylori No. 1. How it is done: as §1
The test system of assay [4] is Helicobacter pylori No. 2. The description is as above. The conditions noted are these: Strain 5: Helicobacter pylori No. 2. As for the experimental part: as §1
For assay [5], the system named is Helicobacter pylori ATCC 43504. Kind of assay: MIC, agar plating dilution (standard method of Japanese Chemotherapy Academy). How it is done:
(§2) 1. Minimum Inhibitory Concentration (MIC) was measured in accordance with the standard method of Japanese Chemotherapy Academy (Chemotherapy, 29: 76-79, 1981). Sensitivity was measured with an agar plating dilution using Brain-Heart Infusion agar (Difco Co.) which was added 0.1% of cyclodextrin. […] of the solutions of the compounds which were obtained in examples of the present invention was prepared by dissolving in dimethylsulfoxide. […] Each of 1 ml of those prepared solutions was dispensed in share, after sterilization, 9 ml of sensitivity measuring medium which is kept at 50° C. was added to each, and they were sufficiently mixed. The mixture was used as a plate for measuring sensitivity. Brain Heart Infusion agar medium (Difco Co.), which was added 0.1% of cyclodextrin, was used as bacteria growing medium, and was cultured under microair at 37° C. for three days, and the number of bacteria thereof was adjusted to about 106/ml. This was used as a bacterial solution for inoculation. The medium was painted in each square about 2 cm with nichromic line loop. The medium was cultured under microair for three days at 37° C.

Assay [6] deals with Helicobacter pylori ATCC 43629. The description is as above. As for the experimental part:
as §2

For assay [7], the system named is Escherichia coli NIH JC-2. Kind of assay: MIC, standard method of Japanese Chemotherapy Academy. The conditions noted are these: for MIC: Objected Strain 3: Escherichia coli NIH JC-2. How it is done: (§3) 1. Minimum Inhibitory Concentration (MIC) was measured in accordance with the standard method of Japanese Chemotherapy Academy (Chemotherapy, 29: 76-79, 1981).
The test system of assay [8] is Bacillus subtilis ATCC 6633. Described as above. The following applies: standard method of Japanese Chemotherapy Academy. How it is done: as §3
And MIC of the compounds of Example 3, 36, 8, 14, 17, 21, 41 and 45 were measured.

Setting [9] is: Objected Strain 1: Helicobacter pylori ATCC 43504.
The mark [10] stands for this setting: Objected Strain 2: Helicobacter pylori ATCC 43629.

In brackets after ≈: the same amount, converted by molar mass. Read-outs that look alike come from different tables or passages of the source.

A word on the MIC: it is the lowest concentration that inhibits growth of the organism. Take `Cl.N=C(N)NC[C@H]1CC[C@H](C(=O)Oc2ccc(-c3ccc(C(=O)OCCCc4ccccc4)cc3)cc2)CC1` [Example 39, trans-4-guanidinomethyl cyclohexane carboxylic acid[4-[4-(3-phenylpropyloxycarbonyl)phenyl]phenylester].hydrochloride]: the minimal inhibitory concentration (MIC) in assay [1] was 0.39 µg/mL; in assay [2], 0.20 µg/mL; in assay [3] it was 0.39 µg/mL; in assay [4], 0.78 µg/mL; in assay [5] (setting [9]), 0.39 µg/mL; in assay [6] (setting [10]), 0.78 µg/mL. For the same molecule, the MIC in assay [7] was over 25 µg/mL.

As for `CCOC(=O)c1ccc(-c2ccc(OC(=O)[C@H]3CC[C@H](CNC(=N)N)CC3)cc2)cc1.Cl` [Example 2, trans-4-guanidinomethyl cyclohexane carboxylic acid [4-(4-ethoxycarbonylphenyl)phenylester].hydrochloride], the MIC was 0.78 µg/mL in assay [1]; 0.39 µg/mL in assay [2]; 0.39 µg/mL in assay [3]; 1.56 µg/mL in assay [4]; 1.56 µg/mL in assay [5] (setting [9]); 0.78 µg/mL in assay [6] (setting [10]). In assay [7], this molecule registered an MIC of over 25 µg/mL.

On to `Cl.N=C(N)NC[C@H]1CC[C@H](C(=O)Oc2ccc(-c3ccccc3)cc2)CC1` [Compound 1, trans-4-guanidinomethyl cyclohexane carboxylic acid (4-phenylphenylester)hydrochloride, reference compound], for which the MIC in assay [1] stood at 0.78 µg/mL; in assay [2], 0.39 µg/mL; in assay [3] it was 0.39 µg/mL; in assay [4] it was 1.56 µg/mL; in assay [5] (setting [9]), 3.13 µg/mL; in assay [6] (setting [10]), 0.78 µg/mL. The molecule further registered an MIC in assay [7] of over 25 µg/mL.

`CCCC[C@H]1CC[C@H](COC(=O)c2ccc(-c3ccc(OC(=O)[C@H]4CC[C@H](CNC(=N)N)CC4)cc3)cc2)CC1.Cl` [Example 42, trans-4-guanidinomethyl cyclohexane carboxylic acid[4-[4-(trans-4-n-butylcyclohexylmethloxycarbonyl)phenyl]phenylester].hydrochloride]: the minimum inhibitory concentration (MIC) was found to be 0.39 µg/mL in assay [1]; 0.20 µg/mL in assay [2]; 0.39 µg/mL in assay [3]; 1.56 µg/mL in assay [4]; 0.39 µg/mL in assay [5] (setting [9]); 1.56 µg/mL in assay [6] (setting [10]). Moreover, in assay [7], the MIC was over 25 µg/mL.

In assay [8], “4-[4-(trans-4-guanidinomethyl cyclohexylcarbonyloxy)phenyl]benzoate.methansulfonate [Example 28]” registered an MIC against bacillus subcillus ATCC 6633 of over 25 µg/mL. This molecule gave an MIC against Escherichia coli. NHJC-2 in assay [7] (standard method of Japanese Chemotherapy Academy) of over 25 µg/mL.

For the molecule `Cl.N=C(N)NC[C@H]1CC[C@H](C(=O)Oc2c(Cl)cc(Cl)c3ccccc23)CC1` [Example 30, trans-4-guanidinomethyl cyclohexane carboxylic acid (2,4-dichloro-1-naphthyleter).hydrochloride], the minimum inhibitory concentration (MIC) in assay [5] (setting [9]) was 3.13 µg/mL; in assay [6] (setting [10]), 3.13 µg/mL; in assay [7], over 25 µg/mL.

With `CC(C)OC(=O)c1ccc(-c2ccc(OC(=O)[C@H]3CC[C@H](CNC(=N)N)CC3)cc2)cc1.Cl` [Example 20, trans-4-guanidinomethyl cyclohexane carboxylic acid [4-(4-isopropyloxycarbonyl)phenylphenylester].hydrochloride], the minimum inhibitory concentration (MIC) in assay [1] is 0.78 µg/mL; in assay [2], 0.39 µg/mL; in assay [3], 0.39 µg/mL; in assay [4], 1.56 µg/mL; in assay [5] (setting [9]), 0.78 µg/mL; in assay [6] (setting [10]), 0.78 µg/mL. The MIC in assay [7] is over 25 µg/mL.

As to `N=C(N)NCC1CCC(C(=O)Oc2ccc(C(=O)OCc3ccccc3)cc2)CC1` (centres unmarked) [Compound 5, reference compound], the minimal inhibitory concentration (MIC) in assay [5] (ATCC43504, Objected Strain 1: Helicobacter pylori ATCC 43504, read-out: MIC) is 12.5 µg/mL (≈ 30.5 µM); in assay [6] (ATCC43629, Objected Strain 2: Helicobacter pylori ATCC 43629, read-out: MIC), 6.25 µg/mL (≈ 15.3 µM); in assay [7] (NIHJC2, read-out: MIC) it was over 25 µg/mL.

As for `Cl.N=C(N)NC[C@H]1CC[C@H](C(=O)Oc2ccc3cc(Br)ccc3c2)CC1` [Example 31, trans-4-guanidinomethyl cyclohexane carboxylic acid (6-bromo-2-naphthyl ester).hydrochloride], the minimal inhibitory concentration (MIC) in assay [5] (setting [9]) is 3.13 µg/mL; in assay [6] (setting [10]), 0.78 µg/mL; in assay [7] it was over 25 µg/mL.

As to `CS(=O)(=O)O.N=C(N)NC[C@H]1CC[C@H](C(=O)Oc2c(C(=O)OCc3ccc(F)cc3)cc(Br)cc2-c2ccccc2)CC1` [Example 11, trans-4-guanidinomethyl cyclohexane carboxylic acid [4-bromo-2-(4-fluorobenzyloxycarbonyl)-6-phenylphenylester].methanosulforate], the figures for the minimum inhibitory concentration (MIC) in assay [5] (setting [9]), in assay [6] (setting [10]) and in assay [7] were 6.25 µg/mL, 6.25 µg/mL and over 25 µg/mL, respectively.

In the case of `Cl.N=C(N)NC[C@H]1CC[C@H](C(=O)Oc2ccc(-c3ccc(C(=O)OCCCOc4ccc(F)cc4)cc3)cc2)CC1` [Example 40, trans-4-guanidinomethyl cyclohexane carboxylic acid[4-[4-[3-(4-fluorophenyloxy)propyloxycarbonyl]phenyl]phenylester].hydrochloride], the MIC in assay [1] is 0.39 µg/mL; in assay [2] it was 0.10 µg/mL; in assay [3] it was 0.20 µg/mL; in assay [4], 0.78 µg/mL; in assay [5] (setting [9]), 0.20 µg/mL; in assay [6] (setting [10]) it was 0.39 µg/mL. The MIC in assay [7] was over 25 µg/mL.

Regarding `Cl.N=C(N)NC[C@H]1CC[C@H](C(=O)Oc2ccc(-c3ccc([N+](=O)[O-])cc3)cc2)CC1` [Example 22, trans-4-guanidinomethyl cyclohexane carboxylic acid [4-(4-nitrophenyl)phenylester].hydrochloride], the MIC is 1.56 µg/mL in assay [5] (setting [9]), 3.13 µg/mL in assay [6] (setting [10]) and over 25 µg/mL in assay [7].

As for `Cl.N=C(N)NC[C@H]1CC[C@H](C(=O)Oc2ccccc2-c2ccccc2)CC1` [Compound 2, trans4-guanidinomethyl cyclohexane carboxylic acid (2-phenylphenylester)hydrochloride, reference compound], the figures for the MIC in assay [5] (setting [9]), in assay [6] (setting [10]) and in assay [7] were 25 µg/mL, 25 µg/mL and over 25 µg/mL, respectively.

For the molecule `Cl.N=C(N)NC[C@H]1CC[C@H](C(=O)Oc2ccc(C3CCCCC3)cc2)CC1` [Example 32, trans-4-guanidinomethyl cyclohexane carboxylic acid (4-cyclohexyphenylester).hydrochloride], the MIC is 3.13 µg/mL in assay [5] (setting [9]), 0.78 µg/mL in assay [6] (setting [10]) and over 25 µg/mL in assay [7].

For `Cl.N=C(N)NC[C@H]1CC[C@H](C(=O)Oc2cccc(-c3ccccc3)c2)CC1` [Example 1, trans-4-guanidinomethyl cyclohexane carboxylic acid (3-phenylphenylester).hydrochloride], the MIC is 12.5 µg/mL in assay [5] (setting [9]), 6.25 µg/mL in assay [6] (setting [10]) and over 25 µg/mL in assay [7].
